Source: US5744298A, “DNA sequences which encode immunoreactive HCMV-specific peptides” (Behringwerke Aktiengesellschaft, priority 1991, dated 1998)
Where no end group is shown, it is not given here.

B1: HCMV protein pp150: HCMV protein pp150 (protein, UniProt P08318 1-1048, looked up)
Large structural …: MSLQFIGLQRRDVVALVNFLRHLTQKPDVDLEAHPKILKKCGEKRLHRRTVLFNELMLWLGYYRELRFHNPDLSSVLEEFEVRCVAVARRGYTYPFGDRGKARDHLAVLDRTEFDTDVRHDAEIVERALVSAVILAKMSVRETLVTAIGQTEPIAFVHLKDTEVQRIEENLEGVRRNMFCVKPLDLNLDRHANTALVNAVNKLVYTGRLIMNVRRSWEELERKCLARIQERCKLLVKELRMCLSFDSNYCRNILKHAVENGDSADTLLELLIEDFDIYVDSFPQSAHTFLGARSPSLEFDDDANLLSLGGGSAFSSVPKKHVPTQPLDGWSWIASPWKGHKPFRFEAHGSLAPAAEAHAARSAAVGYYDEEEKRRERQKRVDDEVVQREKQQLKAWEERQQNLQQRQQQPPPPARKPSASRRLFGSSADEDDDDDDDEKNIFTPIKKPGTSGKGAASGGGVSSIFSGLLSSGSQKPTSGPLNIPQQQQRHAAFSLVSPQVTKASPGRVRRDSAWDVRPLTETRGDLFSGDEDSDSSDGYPPNRQDPRFTDTLVDITDTETSAKPPVTTAYKFEQPTLTFGAGVNVPAGAGAAILTPTPVNPSTAPAPAPTPTFAGTQTPVNGNSPWAPTAPLPGDMNPANWPRERAWALKNPHLAYNPFRMPTTSTASQNTVSTTPRRPSTPRAAVTQTASRDAADEVWALRDQTAESPVEDSEEEDDDSSDTGSVVSLGHTTPSSDYNNDVISPPSQTPEQSTPSRIRKAKLSSPMTTTSTSQKPVLGKRVATPHASARAQTVTSTPVQGRLEKQVSGTPSTVPATLLQPQPASSKTTSSRNVTSGAGTSSASSARQPSASASVLSPTEDDVVSPATSPLSMLSSASPSPAKSAPPSPVKGRGSRVGVPSLKPTLGGKAVVGRPPSVPVSGSAPGRLSGSSRAASTTPTYPAVTTVYPPSSTAKSSVSNAPPVASPSILKPGASAALQSRRSTGTAAVGSPVKSTTGMKTVAFDLSSPQKSGTGPQPGSAGMGGAKTPSDAVQNILQKIEKIKNTEE
B2: recombinant protein XP1: recombinant protein section, amino acid 718-880 of HCMV protein pp150 (protein)
chain: DPRFTDTLVDITDTETSAKPPVTTAYKFEQPTLTFGAGVNVPAGAGAAILTPTPVNPSTAPAPAPTPTFAGTQTPVNGNSPWAPTAPLPGDMNPANWPRERAWALKNPHLAYNPFRMPTTSTASQNTVSTTPRRPSTPRAAVTQTASRDAADEVWALRDQTA

Assays:
[1] = tested on: CMV IgG-positive sera; assay: ELISA of peptide-coated microtiter plates with CMV IgG-positive human sera (localization of epitopes); type: binding; conditions: plate coated with 2.5 μg peptide per ml, serum dilution 1:2; for Reactivity (individual reactivities of particularly reactive peptides with the assayed group of CMV IgG-positive sera, in percent): Table 3
Method: A microtiter plate with 96 wells was coated with a synthesized peptide. To do this, a solution of 2.5 μg of peptide per ml of carbonate buffer was made up and introduced in 100 μl portions into the wells for the coating. The peptides were adsorbed onto the surfaces at 4° C. overnight and, after removal of the peptide solution, the wells were washed several times with washing buffer (50 mM Tris, pH 7.2, 10 mM EDTA, 0.2% Tween 20). Then individual human serum samples in a 1:2 dilution were introduced and incubated at 37° C. for 1 hour. After another washing step, the conjugate antibody specific for human IgG antibodies or human IgM antibodies and labeled with peroxidase was added and the mixture was incubated at room temperature for 0.5 hour. The reaction was subsequently stopped by adding 0.5M sulfuric acid and extinction of the individual samples was measured at a wavelength of 450/650 nm in a photometer.
To test the immunogenicity, peptides of various length from the complete amino-acid sequence region from 718 to 880 of the HCMV protein pp150 (Tab. 2 and 3) were synthesized as described in Example 1. Subsequently, as in Example 2, the microtiter plates were coated with the synthesized peptides, and the immunological reactivity was assayed. […] The three immunologically reactive peptides have the following sequences: […]

[2] = tested on: monoclonal antibody 87-55/02; assay: Reaction of the monoclonal antibody 87-55/02 with peptide epitopes (ELISA, immunoblot); type: binding; conditions: measured as immunoblot and ELISA reactivity
Source text: It was concluded from the method for selecting the monoclonal antibody that the identified epitope must have a very important structure which is not even destroyed by denaturation of the complete protein. This monoclonal antibody correspondingly reacts both with the synthesized peptide 2.7 (SEQ ID NO:26) and with the recombinant protein XP1 (SEQ ID NO:33) and the pp150 protein of HCMV.

Row | Molecule | Reactivity (individual reactivities of particularly reactive peptides with the assayed group of CMV IgG-positive sera, in percent) [1] | Reactivity (individual reactivities of the synthetic pXP1 segments with the assayed group of CMV IgG-positive sera, in percent) ([1]; Table 2) | immunological reaction of monoclonal antibody 87-55/02 with protein [2]
1 | ala tyr lys phe glu gln pro thr leu thr phe gly ala gly val asn val pro ala gly ala gly ala ala ile leu thr pro thr pro val asn pro ser thr ala pro ala pro ala pro (AYKFGQPTLTFGAGVNVPAGAGAAILTPTPVNPSTAPAPAP) [Peptide 1.13] | 90% | – | –
2 | phe glu gln pro thr leu thr phe gly ala gly val asn val pro ala gly ala gly ala ala ile leu thr pro thr pro val asn pro ser thr ala pro ala pro ala (FEQPTTLTFGAGVNVPAGAGAAILTPTPVNPSTAPAPA) [Peptide 1.4] | 90% | – | –
3 | pro thr leu thr phe gly ala gly val asn val pro ala gly ala gly ala ala ile leu thr pro thr pro val asn pro ser thr ala pro ala pro ala pro NH2 (PTLTFGAGVNVPAGAGAAILTPTPVNPSTAPAPAP-NH2) [Peptide 1.6] | 90% | 90% | –
4 | B1 | – | – | unambiguous immunological reaction
5 | B2 | – | – | reacts
